These are literature values, as cited in patent publication US9289392B2, “Extended release pharmaceutical composition of entacapone or salts thereof” (Wockhardt Ltd., priority 2008, dated 2016).

In the case of `C[C@@](Cc1ccc(O)c(O)c1)(NN)C(=O)O` [Carbidopa], the solubility in water result is reported as “slightly soluble”. Turning to `N[C@@H](Cc1ccc(O)c(O)c1)C(=O)O` [Levodopa, (−)-L-α-amino-β-(3,4-dihydroxybenzene) propanoic acid], the solubility in water entry is on record as “slightly soluble”.
